Measurements reported in publication PMC11354720, “Assessing the Efficacy of Protease Inactivation for the Preservation of Bioactive Amphibian Skin Peptides” (International Journal of Molecular Sciences, 2024).
Like-named read-outs stand apart in the source and are kept apart here. Where a SMILES comes first, the peptide text is derived from it. Bridges are numbered along the chain shown (N, C = ends). Where no end group is shown, it is not given here.

Tested on: proteases in Pelophylax esculentus skin secretion
Assay type: in vitro ADME
Conditions: for Proteoforms, %: sum of all proteolytic forms; for Proteoforms, % / Intact, % / Oxidized, %: LC-HRMS; for Intact, %: one frog per sample; for Efficiency of the reagent in deactivating proteases in amphibian skin secretions: comparison of HCl 1%, CH3OH, HCOOH 1%, PMSF 0.1 and 1.0 mM by preservation of nine intact peptides; for Oxidized, %: Met oxidized to methionine sulfoxide
Description: The inhibitory capacity of methanol and hydrochloric and formic acids, as well as PMSF at the minimum and maximum concentrations traditionally used in proteomics (0.1–1.0 mM), was compared via mass spectrometric monitoring of intact and proteolytic forms of nine peptides in five samples of Pelophylax esculentus secretions (samples 1–5).
Table 2 presents quantitative data for each of the nine peptides in Table 1, showing the percentage ratio of the intact (original) form of the peptide, the oxidized form (in the presence of methionine in the sequence), and the resulting proteolytic forms: products of the action of the remaining non-deactivated proteases. The full list of the detected proteolytic forms is included into the supporting material. The presence of one or another proteolytic form for each peptide in each of the five samples was determined by observing the coincidence of their exact experimental mass with the calculated one (within 0.5 ppm according to the mass spectra), as well as the coincidence of their sequences (tandem mass spectra data).
When calculating the data in Table 2, the total amount of intensities of all its formed forms in the mass spectra was taken as 100% for each peptide. To calculate the content in each of the samples of the intact, oxidized (if any), or proteolytic form of each of the nine peptides, the sum of the intensities of the chromatographic peaks of its multicharged ions, exactly corresponding to the values of the polyprotonated molecules of each of the forms, was used. The line “Proteoforms, %” took into account the sum of all proteolytic forms of a particular peptide for each of the five samples. The values of the intensities of each of the forms (intact, oxidized, and proteolytic) obtained in this way were summed up and, in relation to their resulting sum, the percentage content of each of the three forms in Table 2 was calculated for each of the five samples with different reagents.
The skin secretions of five sexually mature female specimens of the same size of Pelophylax esculentus, caught within the Moscow city limits, were obtained via mild electro-stimulation of the skin glands using a laboratory electro-stimulator [15, 51]. The “milking” parameters were as follows: signal frequency 50 Hz, pulse duration 3 ms, voltage 12 V, total stimulation time 40 s. The secretion was washed off with deionized water into separate containers, to which the following reagents were immediately added individually: —HCl to final concentration 1% (sample 1); —CH3OH (sample 2); —HCOOH to final concentration 1% (sample 3); —0.1 mM PMSF (sample 4 in DMSO); —1.0 mM PMSF (sample 5 in DMSO). All samples were centrifuged for 15 min at 3 000 rpm, filtered through removable membrane filters (PTFE 0.45 μm), and lyophilized. The storage temperature was −26 °C. All five individuals were immediately returned to their place of capture after the procedure.
Mass spectra were obtained on an Orbitrap ID-X high-resolution mass spectrometer (Thermo Scientific, Waltham, MA, USA) coupled to an LC-30 Nexera liquid chromatograph (Shimadzu, Kyoto, Japan) in LC-HRMS mode. An HPLC system consisted of two LC-30AD chromatographic pumps, a DGU-5A vacuum degasser, a SIL-30AC autosampler, an STO-20A column thermostat, and a CBM-20A system controller. The components of the secretions were separated on an XDB-C18 column (Agilent, Santa Clara, CA, USA) with a length of 100 mm and phase particle size of 1.8 μm. Gradient chromatography was performed using the following solutions: A—0.1% formic acid solution in deionized water (Milli-Q, Millipore, Molsheim, France); B—0.1% formic acid solution in acetonitrile containing 2% deionized water. All lyophilized samples were dissolved in phase B prior to the analysis. Injection volume was set to 0.1 µL. […]

[1] = sample 1: HCl final concentration 1%, all forms = 100%
[2] = sample 1: aqueous P. esculentus skin secretion, HCl added to final concentration 1%, sum of intensities of all forms of the peptide = 100%
[3] = sample 2: CH3OH, all forms = 100%
[4] = sample 2: aqueous P. esculentus skin secretion with CH3OH added, all forms = 100%
[5] = sample 3: HCOOH final concentration 1%, all forms = 100%
[6] = sample 3: aqueous P. esculentus skin secretion, HCOOH added to final concentration 1%, all forms = 100%
[7] = sample 4: aqueous P. esculentus skin secretion, PMSF 0.1 mM (in DMSO), all forms = 100%
[8] = sample 5: PMSF 1.0 mM (in DMSO), all forms = 100%
[9] = sample 5: aqueous P. esculentus skin secretion, PMSF 1.0 mM (in DMSO), all forms = 100%
[10] = sample 4: PMSF 0.1 mM (in DMSO), all forms = 100%

Q: Which “Proteoforms, %” value [1] does the source give for CC[C@H](C)[C@H](NC(=O)[C@@H](N)C(C)C)C(=O)N1CCC[C@H]1C(=O)N[C@@H](Cc1ccccc1)C(=O)N[C@H](C(=O)N[C@@H](C)C(=O)N[C@@H](CO)C(=O)N[C@H](C(=O)N[C@@H](C)C(=O)N[C@@H](C)C(=O)N[C@@H](CCC(=O)O)C(=O)N[C@@H](CCSC)C(=O)N[C@@H](CCSC)C(=O)N[C@@H](CCC(N)=O)C(=O)N[C@@H](Cc1c[nH]cn1)C(=O)N[C@H](C(=O)N[C@@H](Cc1ccc(O)cc1)C(=O)N[C@H]1CSSC[C@@H](C(=O)O)NC(=O)[C@H](CCCNC(=N)N)NC(=O)[C@H](CCCNC(=N)N)NC(=O)[C@H](CO)NC(=O)[C@H](C)NC(=O)[C@H](C)NC1=O)C(C)C)C(C)C)C(C)C [Brev 1Ra, Brevinin 1Ra] (H-VIPFVASVAAEMMQHVYCAASRRC-OH; disulfide 18-24) here?
A: 0.75%

Q: And the “Intact, %” value [2]?
A: 93.51%

Q: What about the “Proteoforms, %” value [3] of the same molecule?
A: 0.60%

Q: And the “Intact, %” value [4]?
A: 98.27%

Q: And the “Proteoforms, %” value [5]?
A: 0.30%

Q: What about the “Intact, %” value [6] of the same molecule?
A: 99.51%

Q: And the “Intact, %” value [7]?
A: 77.80%

Q: And the “Proteoforms, %” value [8]?
A: 0.53%

Q: What about the “Intact, %” value [9] of the same molecule?
A: 99.47%

Q: For CO [Methanol, reference compound], which “Efficiency of the reagent in deactivating proteases in amphibian skin secretions” value is on record?
A: most efficient

Q: For O=S(=O)(F)Cc1ccccc1 [PMSF, phenylmethylsulfonyl fluoride, reference compound], which “Efficiency of the reagent in deactivating proteases in amphibian skin secretions” value is on record?
A: ineffective

Q: Which results are given for CC[C@H](C)[C@H](NC(=O)[C@H](CC(N)=O)NC(=O)[C@@H](NC(=O)[C@H](C)N)C(C)C)C(=O)N1CCC[C@H]1C(=O)N[C@@H](Cc1ccccc1)C(=O)N[C@@H](CCCCN)C(=O)N[C@H](C(=O)N[C@@H](CCCCN)C(=O)N[C@@H](Cc1ccccc1)C(=O)N[C@@H](CCCNC(=N)N)C(=O)N[C@H]1CSSC[C@@H](C(=O)O)NC(=O)[C@H](Cc2ccccc2)NC(=O)[C@H](C)NC(=O)[C@H](C)NC(=O)[C@H](CCCCN)NC1=O)C(C)C [Ranat 2R, Ranatuerin 2R] (H-AVNIPFKVKFRCKAAFC-OH; disulfide 12-17)?
A: Proteoforms, % [1]: 14.79%; Intact, % [2]: 85.21%; Proteoforms, % [3]: proteolytic fragments were not recorded; Intact, % [4]: 100%; Proteoforms, % [5]: 34.99%; Intact, % [6]: 65.01%; Proteoforms, % [10]: proteolytic fragments were not recorded; Proteoforms, % [8]: proteolytic fragments were not recorded; Intact, % [9]: 100%

Q: Which results are given for “FFPAFLKVAAKVVPSXXCSITKKC-OH (disulfide) [Brev 1LE, Brevinin 1LE, natural disulfide skin peptide of Pelophylax esculentus, brevinin 1 family, 24 aa]”?
A: Proteoforms, % [1]: not a single proteolytic fragment was formed; Intact, % [2]: 100%; Proteoforms, % [3]: not a single proteolytic fragment was formed; Intact, % [4]: 100%; Proteoforms, % [5]: 1.63%; Intact, % [6]: 98.37%; Proteoforms, % [10]: 92.73%; Intact, % [7]: 7.27%; Proteoforms, % [8]: 89.74%; Intact, % [9]: 10.26%

Q: Which results are given for “GIFSKLGRKKIKNLLISGLKNVGKEVGMDVVRTGIDIAGCKIKGEC (disulfide 40-46) [Escul 1, Esculentin 1]”?
A: Proteoforms, % [1]: 51.77%; Intact, % [2]: 38.61%; Proteoforms, % [3]: 20.01%; Intact, % [4]: 79.99%; Proteoforms, % [5]: 16.99%; Intact, % [6]: 72.22%; Proteoforms, % [10]: 94.40%; Intact, % [7]: 3.32%; Proteoforms, % [8]: 91.90%; Intact, % [9]: 8.10%

Q: For “GXFSKXAGKKXKNLXISGXKSVGKEVGMDVVRTGIDIAGCKIKGEC-OH (disulfide) [Escul 1R, Esculentin 1R, natural disulfide skin peptide of Pelophylax esculentus, esculentin 1 family, 46 aa]”, which “Oxidized, %” value [1] is on record?
A: 7.45%

Q: And the “Proteoforms, %” value [1]?
A: 27.69%

Q: What about the “Intact, %” value [2] of the same molecule?
A: 64.86%

Q: And the “Proteoforms, %” value [3]?
A: 22.15%

Q: What about the “Intact, %” value [4] of the same molecule?
A: 77.85%

Q: What about the “Proteoforms, %” value [5] of the same molecule?
A: 15.59%

Q: And the “Intact, %” value [6]?
A: 84.41%

Q: What about the “Oxidized, %” value [10] of the same molecule?
A: 0.25%

Q: What about the “Proteoforms, %” value [10] of the same molecule?
A: 97.33%

Q: And the “Intact, %” value [7]?
A: 2.42%

Q: And the “Proteoforms, %” value [8]?
A: 99.26%

Q: And the “Intact, %” value [9]?
A: 0.74%

Q: Which “Proteoforms, %” value [1] does the source give for “GXLDSLKNFAKDAAGILLKKASCKLSGQC-OH (disulfide) [Brev 2Ra, Brevinin 2Ra, natural disulfide skin peptide of Pelophylax esculentus, brevinin 2 family, 29 aa]” here?
A: 1.02%

Q: And the “Intact, %” value [2]?
A: 98.98%

Q: And the “Proteoforms, %” value [3]?
A: did not degrade

Q: What about the “Intact, %” value [4] of the same molecule?
A: 100%

Q: What about the “Proteoforms, %” value [5] of the same molecule?
A: 1.30%

Q: What about the “Intact, %” value [6] of the same molecule?
A: 98.70%

Q: What about the “Proteoforms, %” value [10] of the same molecule?
A: 88.21%

Q: And the “Intact, %” value [7]?
A: 11.80%

Q: What about the “Proteoforms, %” value [8] of the same molecule?
A: 14.01%

Q: What about the “Intact, %” value [9] of the same molecule?
A: 85.99%

Q: With “GXLDSLKNLAKNAAQILLNKASCKLSGQC-OH (disulfide) [Brev 2Rd, Brevinin 2Rd, natural disulfide skin peptide of Pelophylax esculentus, brevinin 2 family, 29 aa]” as the molecule, how does the “Proteoforms, %” value [1] read?
A: 0.39%

Q: What about the “Intact, %” value [2] of the same molecule?
A: 99.61%

Q: And the “Proteoforms, %” value [3]?
A: did not degrade

Q: What about the “Intact, %” value [4] of the same molecule?
A: 100%

Q: What about the “Proteoforms, %” value [5] of the same molecule?
A: 2.23%

Q: And the “Intact, %” value [6]?
A: 97.77%

Q: What about the “Proteoforms, %” value [10] of the same molecule?
A: 98.45%

Q: And the “Intact, %” value [7]?
A: 1.55%

Q: What about the “Proteoforms, %” value [8] of the same molecule?
A: 79.16%

Q: And the “Intact, %” value [9]?
A: 20.84%

Q: Which “Proteoforms, %” value [1] does the source give for “GXLSTLKNVAKTAGKGALQSLLNAASCKLSGQC-OH (disulfide) [Brev 2L, Brevinin 2L, natural disulfide skin peptide of Pelophylax esculentus, brevinin 2 family, 33 aa]” here?
A: 1.21%

Q: What about the “Intact, %” value [2] of the same molecule?
A: 98.79%

Q: And the “Proteoforms, %” value [3]?
A: 4.66%

Q: And the “Intact, %” value [4]?
A: 95.34%

Q: What about the “Proteoforms, %” value [5] of the same molecule?
A: 4.74%

Q: What about the “Intact, %” value [6] of the same molecule?
A: 95.26%

Q: And the “Proteoforms, %” value [10]?
A: 99.64%

Q: What about the “Intact, %” value [7] of the same molecule?
A: 0.36%

Q: And the “Proteoforms, %” value [8]?
A: 80.51%

Q: What about the “Intact, %” value [9] of the same molecule?
A: 19.49%

Q: How did the “Proteoforms, %” value [1] turn out when “GXWNTXKATGKSA ASNVAVTLLDKAKCK(LV)GEC-OH (disulfide) [Brev 2La, Brevinin 2La, natural disulfide skin peptide of Pelophylax esculentus, brevinin 2 family, 33 aa]” was run?
A: 69.02%

Q: And the “Intact, %” value [2]?
A: 30.98%

Q: And the “Proteoforms, %” value [3]?
A: not observed at all

Q: What about the “Intact, %” value [4] of the same molecule?
A: 100%

Q: What about the “Proteoforms, %” value [5] of the same molecule?
A: 4.98%

Q: And the “Intact, %” value [6]?
A: 95.02%

Q: What about the “Proteoforms, %” value [8] of the same molecule?
A: not observed at all
